The target of the assay is T1, Kv1.3 potassium channel (Homo sapiens, UniProt P22001).
T1 construct: expressed in transfected cells
The assay is described as follows: Kv1.3 potassium channel blocker activity, automated whole-cell patch clamp (Patchliner). In kind it is cell-based. Particulars: CHO-K1 cells stably expressing Kv1.3; whole cell current inhibition; read-out: Kv1.3_IC50. As to the method: The assay described below is used to evaluate the disclosed compound's activities as Kv1.3 potassium channel blockers.
CHO-K1 cells stably expressing Kv1.3 were grown in DMEM containing 10% heat-inactivated FBS, 1 mM Sodium Pyruvate, 2 mM L-Glutamine and G418 (500 μg/ml).
All compounds were dissolved in DMSO at 30 mM.
The currents were evoked by applying 100 ms depolarizing pulses from −90 mV (holding potential) to +40 mV were applied with 0.1 Hz frequency. […] 10 second breaks were used between pulse trains (see Table A below).
Data were sampled at 10 kHz without filtering. Passive leak currents were subtracted online using a P/4 procedure (HEKA Elektronik Dr. Schulze GmbH). […] Total compound incubation time before the next pulse train was not longer than 10 seconds. Peak current inhibition was observed during compound equilibration.
(In patch-clamp work, channel activity is measured electrically.)

Here are results for 33 molecules from patent US20230023559A1, “ARYLMETHYLENE HETEROCYCLIC COMPOUNDS AS KV1.3 POTASSIUM SHAKER CHANNEL BLOCKERS” (D. E. Shaw Research, LLC, priority 2019, published 2023).

T1 sequence (P22001 whole entry): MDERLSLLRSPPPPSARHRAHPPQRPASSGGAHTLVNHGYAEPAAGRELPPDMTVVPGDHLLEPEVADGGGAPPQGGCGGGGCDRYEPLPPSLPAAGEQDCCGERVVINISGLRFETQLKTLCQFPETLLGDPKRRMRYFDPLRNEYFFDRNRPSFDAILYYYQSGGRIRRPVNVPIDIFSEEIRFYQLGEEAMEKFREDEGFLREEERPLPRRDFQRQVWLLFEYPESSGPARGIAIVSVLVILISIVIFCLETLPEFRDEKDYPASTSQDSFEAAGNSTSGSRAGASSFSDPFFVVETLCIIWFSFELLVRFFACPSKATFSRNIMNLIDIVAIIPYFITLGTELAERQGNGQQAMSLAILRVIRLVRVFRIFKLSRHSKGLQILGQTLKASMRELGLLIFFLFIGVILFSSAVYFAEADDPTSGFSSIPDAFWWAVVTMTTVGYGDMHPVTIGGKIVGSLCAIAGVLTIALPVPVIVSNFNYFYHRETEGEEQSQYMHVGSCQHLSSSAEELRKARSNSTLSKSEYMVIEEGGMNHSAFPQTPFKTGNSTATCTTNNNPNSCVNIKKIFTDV

By IC50 is commonly meant the concentration at which inhibition is half-maximal. Turning to `Cc1cc(O)c([C@H](N)C2CCN(C(=O)c3ccc4c(c3)OCC(=O)N4)CC2)cc1Cl` [Compound 265, 7-[4-[(R)-amino(5-chloro-2-hydroxy-4-methylphenyl)methyl]piperidine-1-carbonyl]-2,4-dihydro-1,4-benzoxazin-3-one trifluoroacetic acid], the IC50 is < 0.5 µM.
With `O=C([C@H]1CCNC1)N1CCC[C@@H]([C@@H](O)c2c(O)ccc(Cl)c2Cl)CC1` (single isomer, unassigned; isomer 3) [Compound 323], the IC50 was < 10 µM.
Under `CN1C[C@H](C(=O)N2CCC([C@@H](N)c3cc(Cl)c(Cl)cc3O)CC2)OCC1=O` (single isomer, unassigned; isomer 1) [Compound 274] stands < 0.5 µM; under `O=C([C@H]1CCNC1)N1CCC[C@@H]([C@H](O)c2c(O)ccc(Cl)c2Cl)CC1` (single isomer, unassigned; isomer 1) [Compound 322], < 10 µM.
Under `N[C@@H](c1cc(Cl)c(Cl)cc1O)C1C2CCC1CN(C(=O)[C@H](O)CO)C2` (stereo partly drawn) [Compound 313, (2R)-1-[8-[(R)-amino(4,5-dichloro-2-hydroxyphenyl)methyl]-3-azabicyclo[3.2.1]octan-3-yl]-2,3-dihydroxypropan-1-one Trifluoroacetic Acid] stands < 10 µM; under `N[C@@H](c1cc(Cl)c(Cl)cc1O)C1CCN(C(=O)c2ccc(=O)[nH]n2)CC1` [Compound 253, 6-[4-[(R)-amino(4,5-dichloro-2-hydroxyphenyl)methyl]piperidine-1-carbonyl]-2H-pyridazin-3-one trifluoroacetic acid], < 0.5 µM; under `CN1CCC([C@H](O)c2cc(Cl)c(Cl)cc2O)CC1` (single isomer, unassigned) [Compound 319], < 10 µM.
With `N[C@H](c1cc(Cl)c(Cl)cc1O)[C@@H]1CCN(C(=O)[C@H](O)CO)C1` [Compound 310, (2R)-1-[(3R)-3-[(S)-amino(4,5-dichloro-2-hydroxyphenyl)methyl]pyrrolidin-1-yl]-2,3-dihydroxypropan-1-one] the figure was < 10 µM; with `CN(C)C(c1cc(Cl)c(Cl)cc1O)C1CCN(C(=O)[C@H](O)CO)CC1` (stereo partly drawn) [Compound 193, (2R)-1-[4-[(4,5-dichloro-2-hydroxyphenyl)(dimethylamino)methyl]piperidin-1-yl]-2,3-dihydroxypropan-1-one Trifluoroacetic Acid], < 30 µM; with `CC(N)(c1cc(Cl)c(Cl)cc1O)C1CCNCC1` (stereo not drawn) [Compound 40, 2-[1-amino-1-(piperidin-4-yl)ethyl]-4,5-dichlorophenol], < 30 µM.
In the case of `NC(c1cc(Cl)c(Cl)cc1O)C1CCN(C2CCNC2=O)CC1` (stereo not drawn) [Compound 65, 3-(4-(amino(4,5-dichloro-2-hydroxyphenyl)methyl)piperidin-1-yl)pyrrolidin-2-one Trifluoroacetic Acid], the IC50 is < 10 µM.
With `N[C@H](c1cc(Cl)c(Cl)cc1O)C1CCN(C(=O)[C@H]2CCNC2)CC1` [Compound 79, (4-((S)-amino(4,5-dichloro-2-hydroxyphenyl)methyl)piperidin-1-yl)((S)-pyrrolidin-3-yl)methanone] the figure was < 10 µM; with `C[C@@](O)(c1cc(Cl)c(Cl)cc1O)C1CCNCC1` (single isomer, unassigned; isomer 1) [Compound 25, 4,5-dichloro-2-(1-hydroxy-1-(piperidin-4-yl)ethyl)phenol isomer 1], < 10 µM; with `N[C@@H](c1cc(Cl)c(Cl)cc1O)C1CCN(C(=O)c2c[nH]c(=O)[nH]c2=O)CC1` [Compound 252, 5-[4-[(R)-amino(4,5-dichloro-2-hydroxyphenyl)methyl]piperidine-1-carbonyl]-1,3-dihydropyrimidine-2,4-dione formic acid], < 0.5 µM.
Take `Cc1cc(O)c([C@H](N)C2CCN(C(=O)c3ccc4c(c3)NC(=O)CO4)CC2)cc1Cl` [Compound 269, 6-[4-[(R)-amino (5-chloro-2-hydroxy-4-methylphenyl)methyl]piperidine-1-carbonyl]-2,4-dihydro-1,4-benzoxazin-3-one]: the IC50 was < 10 µM.
In the case of `N[C@@H](c1c(O)ccc(Cl)c1Cl)C1CCN(C(=O)[C@H](O)CO)CC1` [Compound 187, (2R)-1-[4-[(R)-amino(2,3-dichloro-6-hydroxyphenyl)methyl]piperidin-1-yl]-2,3-dihydroxypropan-1-one Trifluoroacetic Acid], the IC50 was < 10 µM.
For the molecule `N#Cc1cc(O)c([C@H](N)C2CCN(C(=O)[C@H](O)CO)CC2)cc1Cl` [Compound 286, 4-[(R)-amino([1-[(2R)-2,3-dihydroxypropanoyl]piperidin-4-yl])methyl]-2-chloro-5-hydroxybenzonitrile Trifluoroacetic Acid], the IC50 is < 10 µM.
Under `N[C@@H](c1cc(Cl)c(C(F)F)cc1O)C1CCN(C(=O)[C@H](O)CO)CC1` [Compound 227, (2R)-1-[4-[(R)-amino[5-chloro-4-(difluoromethyl)-2-hydroxyphenyl]methyl]piperidin-1-yl]-2,3-dihydroxypropan-1-one Trifluoroacetic Acid] stands < 0.5 µM.
Under `CC1(C)C[C@H]([C@H](N)c2cc(Cl)c(Cl)cc2O)CCN1` (single isomer, unassigned; diastereoisomer 2) [Compound 73, 2-(amino(2,2-dimethylpiperidin-4-yl)methyl)-4,5-dichlorophenol Trifluoroacetic Acid Diastereoisomer 2] stands < 10 µM; under `N[C@@H](c1cc(Cl)c(Cl)cc1O)[C@@H]1CCN(C(=O)[C@H](O)CO)C1` [Compound 311, (2R)-1-[(3R)-3-[(R)-amino(4,5-dichloro-2-hydroxyphenyl)methyl]pyrrolidin-1-yl]-2,3-dihydroxypropan-1-one], < 10 µM.
With `CN(C)C(=O)CN1CCC(C(N)c2cc(Cl)c(Cl)cc2O)CC1` (stereo not drawn) [Compound 55, 2-[4-[amino(4,5-dichloro-2-hydroxyphenyl)methyl]piperidin-1-yl]-N,N-dimethylacetamide] the figure was < 10 µM; with `CC1(C(N)c2cc(Cl)c(Cl)cc2O)CCN(C(=O)[C@H](O)CO)CC1` (stereo partly drawn) [Compound 309, (2R)-1-[4-[amino(4,5-dichloro-2-hydroxyphenyl)methyl]-4-methylpiperidin-1-yl]-2,3-dihydroxypropan-1-one Trifluoroacetic Acid], < 10 µM; with `N[C@@H](c1cc(Cl)c(F)cc1O)C1CCN(C(=O)[C@H](O)CO)CC1` [Compound 285, (2R)-1-[4-[(R)-amino(5-chloro-4-fluoro-2-hydroxyphenyl)methyl]piperidin-1-yl]-2,3-dihydroxypropan-1-one Trifluoroacetic Acid], < 10 µM.
For the molecule `N[C@@H](c1cc(Cl)c(Cl)cc1O)C1CCN(C(=O)[C@@H]2CNC(=O)CO2)CC1` [Compound 229, (6S)-6-[4-[(R)-amino(4,5-dichloro-2-hydroxyphenyl)methyl]piperidine-1-carbonyl]morpholin-3-one Trifluoroacetic Acid], the concentration for half-maximal inhibition (IC50) was < 10 µM.
For `CCNC(c1cc(Cl)c(Cl)cc1O)C1CCN(C(=O)[C@H](O)CO)CC1` (stereo partly drawn) [Compound 202, (2R)-1-[4-[(4,5-dichloro-2-hydroxyphenyl)(ethylamino)methyl]piperidin-1-yl]-2,3-dihydroxypropan-1-one Trifluoroacetic Acid], the IC50 was < 30 µM.
Under `N[C@@H](c1cc(Cl)c(C2CCC2)cc1O)C1CCN(C(=O)[C@H](O)CO)CC1` [Compound 288, (2R)-1-[4-[(R)-amino(5-chloro-4-cyclobutyl-2-hydroxyphenyl)methyl]piperidin-1-yl]-2,3-dihydroxypropan-1-one Trifluoroacetic Acid] stands < 30 µM.
Under `CC(C)C[C@@H](N)C(=O)N1CCC([C@@H](N)c2cc(Cl)c(Cl)cc2O)CC1` [Compound 94, (R)-2-amino-1-(4-((R)-amino(4,5-dichloro-2-hydroxyphenyl)methyl)piperidin-1-yl)-4-methylpentan-1-one trifluoroacetic acid] stands < 0.5 µM; under `CS(=O)(=O)N1CCC(C(N)c2cc(Cl)c(Cl)cc2O)CC1` (stereo not drawn) [Compound 71, 2-[amino(1-methanesulfonylpiperidin-4-yl)methyl]-4,5-dichlorophenol Trifluoroacetic Acid], < 10 µM.
With `CC(=O)N1CCC(C(c2cc(Cl)c(Cl)cc2O)N2CCCC2)CC1` (stereo not drawn) [Compound 23, 1-(4-((4,5-dichloro-2-hydroxyphenyl)(pyrrolidin-1-yl)methyl)piperidin-1-yl)ethanone Trifluoroacetic Acid] the figure was < 10 µM.
Turning to `CC(=O)N1CCC(C(Nc2ccccn2)c2cc(Cl)c(Cl)cc2O)CC1` (stereo not drawn) [Compound 27, 1-[4-[(4,5-dichloro-2-hydroxyphenyl)[(pyridin-2-yl)amino]methyl]piperidin-1-yl]ethan-1-one Trifluoroacetic Acid], the IC50 was < 30 µM.
With `N[C@H](c1cc(Cl)c(Cl)cc1O)C1C2CCC1CN(C(=O)[C@H](O)CO)C2` (stereo partly drawn) [Compound 314, (2R)-1-[8-[(S)-amino(4,5-dichloro-2-hydroxyphenyl)methyl]-3-azabicyclo[3.2.1]octan-3-yl]-2,3-dihydroxypropan-1-one Trifluoroacetic Acid] the figure was < 30 µM; with `Cc1cc(O)c([C@H](N)C2CCN(C(=O)c3c[nH]c(=O)c4ccccc34)CC2)cc1Cl` [Compound 325, 4-[4-[(R)-amino (5-chloro-2-hydroxy-4-methylphenyl)methyl]piperidine-1-carbonyl]-2H-isoquinolin-1-one trifluoroacetic acid], < 0.5 µM; with `O=C([C@@H]1CCNC1)N1CCC([C@H](O)c2c(O)ccc(Cl)c2Cl)CC1` (single isomer, unassigned) [Compound 321, Trifluoroacetic Acid], < 10 µM.
